Measurements from publication PMC10893631, “Receptor-based pharmacophore modeling, molecular docking, synthesis and biological evaluation of novel VEGFR-2, FGFR-1, and BRAF multi-kinase inhibitors” (BMC Chemistry, 2024).

Assays:
Experiment in all cases: NCI SRB growth inhibition (single dose 10 µM / five-dose)
Assay type in all cases: cell-based, human
[1] = test system: A498; settings: for GI50: A498, Renal cancer, five-dose
Method in brief: (§1)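 Single-dose screen output reported as mean graph; selected compounds then run at five concentrations. Cells pre-grown 24 h before drug addition, fixed with TCA, and quantified by SRB dye binding.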

[2] = test system: A549/ATCC; settings: for GI50: A549/ATCC, Non-small cell lung cancer, five-dose
Method in brief: as §1

[3] = test system: ACHN; settings: for GI50: ACHN, Renal cancer, five-dose
Method in brief: as §1

[4] = test system: BT-549; settings: for GI50: BT-549, Breast cancer, five-dose
Method in brief: as §1

[5] = test system: CAKI-1; settings: for GI50: CAKI-1, Renal cancer, five-dose
Method in brief: as §1

[6] = test system: CCRF-CEM; settings: for GI50: CCRF-CEM, Leukemia, five-dose
Method in brief: as §1

[7] = test system: HCC-2998; settings: for GI50: HCC-2998, Colon cancer, five-dose
Method in brief: as §1

[8] = test system: HCT-15; settings: for GI50: HCT-15, Colon cancer, five-dose
Method in brief: as §1

[9] = test system: HL-60(TB); settings: for GI50: HL-60(TB), Leukemia, five-dose
Method in brief: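 Percent growth relative to untreated control and time-zero cell mass, determined by SRB. Five drug levels (10-fold or half-log steps) plus control; time-zero plates fixed 24 h after seeding.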

[10] = test system: HOP-62; settings: for GI50: HOP-62, Non-small cell lung cancer, five-dose
Method in brief: as §1

[11] = test system: HS 578 T; settings: for GI50: HS 578 T, Breast cancer, five-dose
Method in brief: as §1

[12] = test system: HT29; settings: for GI50: HT29, Colon cancer, five-dose
Method in brief: as §1

[13] = test system: LOX IMVI; settings: for GI50: LOX IMVI, Melanoma, five-dose
Method in brief: as §1

[14] = test system: MCF7; settings: for GI50: MCF7, Breast cancer, five-dose
Method in brief: as §1

[15] = test system: MDA-MB-231/ATCC; settings: for GI50: MDA-MB-231/ATCC, Breast cancer, five-dose
Method in brief: as §1

[16] = test system: MOLT-4; settings: for GI50: MOLT-4, Leukemia, five-dose
Method in brief: as §1

[17] = test system: NCI-H23; settings: for GI50: NCI-H23, Non-small cell lung cancer, five-dose
Method in brief: as §1

[18] = test system: NCI-H322M; settings: for GI50: NCI-H322M, Non-small cell lung cancer, five-dose
Method in brief: as §1

[19] = test system: OVCAR-5; settings: for GI50: OVCAR-5, Ovarian cancer, five-dose
Method in brief: as §1

[20] = test system: OVCAR-8; settings: for GI50: OVCAR-8, Ovarian cancer, five-dose
Method in brief: as §1

[21] = test system: PC-3
Method in brief: as §1

[22] = test system: SF-268; settings: for GI50: SF-268, CNS cancer, five-dose
Method in brief: as §1

[23] = test system: SK-MEL-2; settings: for GI50: SK-MEL-2, Melanoma, five-dose
Method in brief: as §1

[24] = test system: SNB-19; settings: for GI50: SNB-19, CNS cancer, five-dose
Method in brief: as §1

[25] = test system: SR; settings: for GI50: SR, Leukemia, five-dose
Method in brief: as §1

[26] = test system: UACC-257; settings: for GI50: UACC-257, Melanoma, five-dose
Method in brief: as §1

## N'-(2-Hydroxybenzylidene)-2-phenyl-1H-benzo[d]imidazole-5-carbohydrazide [8a]
[1]; A498 (Renal cancer), 10 µM
  GI%: – (GI% < 5%)
[1]
  GI50: 16.9 µM
[2]; A549/ATCC (Non-small cell lung cancer), 10 µM
  GI%: L (GI% > 100)
[2]
  GI50: 3.41 µM
[3]; ACHN (Renal cancer), 10 µM
  GI%: L (GI% > 100)
[3]
  GI50: 3.28 µM
[4]; BT-549 (Breast cancer), 10 µM
  GI%: L (GI% > 100)
[4]
  GI50: 1.8 µM
[5]; CAKI-1 (Renal cancer), 10 µM
  GI%: L (GI% > 100)
[5]
  GI50: 3.48 µM
[6]; CCRF-CEM (Leukemia), 10 µM
  GI%: 88.16%
[6]
  GI50: 0.26 µM
[7]; HCC-2998 (Colon cancer), 10 µM
  GI%: 73.20%
[7]
  GI50: 3.91 µM
[8]; HCT-15 (Colon cancer), 10 µM
  GI%: 94.00%
[8]
  GI50: 1.07 µM
[9]; HL-60(TB) (Leukemia), 10 µM
  GI%: 95.58%
[9]
  GI50: 3.08 µM
[10]; HOP-62 (Non-small cell lung cancer), 10 µM
  GI%: L (GI% > 100)
[10]
  GI50: 1.47 µM
[11]; HS 578 T (Breast cancer), 10 µM
  GI%: L (GI% > 100)
[11]
  GI50: 2.49 µM
[12]; HT29 (Colon cancer), 10 µM
  GI%: L (GI% > 100)
[12]
  GI50: 2.63 µM
[13]; LOX IMVI (Melanoma), 10 µM
  GI%: 88.38%
[13]
  GI50: 2 µM
[14]; MCF7 (Breast cancer), 10 µM
  GI%: 96.94%
[14]
  GI50: 2.63 µM
[15]; MDA-MB-231/ATCC (Breast cancer), 10 µM
  GI%: 88.16%
[15]
  GI50: 2.03 µM
[16]; MOLT-4 (Leukemia), 10 µM
  GI%: 89.54%
[16]
  GI50: 1.62 µM
[17]; NCI-H23 (Non-small cell lung cancer), 10 µM
  GI%: 83.12%
[17]
  GI50: 3.31 µM
[18]; NCI-H322M (Non-small cell lung cancer), 10 µM
  GI%: 94.14%
[18]
  GI50: 2.13 µM
[19]; OVCAR-5 (Ovarian cancer), 10 µM
  GI%: 77.04%
[19]
  GI50: 8.5 µM
[20]; OVCAR-8 (Ovarian cancer), 10 µM
  GI%: L (GI% > 100)
[20]
  GI50: 2.49 µM
[21]; PC-3 (Prostate cancer), 10 µM
  GI%: 90.74%
[22]; SF-268 (CNS cancer), 10 µM
  GI%: L (GI% > 100)
[22]
  GI50: 2.78 µM
[23]; SK-MEL-2 (Melanoma), 10 µM
  GI%: 60.21%
[23]
  GI50: 3.19 µM
[24]; SNB-19 (CNS cancer), 10 µM
  GI%: 95.02%
[24]
  GI50: 4.16 µM
[25]; SR (Leukemia), 10 µM
  GI%: 92.31%
[25]
  GI50: 1.68 µM
[26]; UACC-257 (Melanoma), 10 µM
  GI%: 88.80%
[26]
  GI50: 4 µM

## COc1cc(C=NNC(=O)c2ccc3[nH]c(-c4ccc(Cl)cc4)nc3c2)cc(OC)c1OC [8u, 2-(4-Chlorophenyl)-N'-(3,4,5-trimethoxybenzylidene)-1H-benzo[d]imidazole-5-carbohydrazide]
[1]; Homo sapiens, A498 (Renal cancer), 10 µM, read-out: GI%
  inhibition at 10 µM: > 100%
[1]; Homo sapiens
  GI50: 26.4 µM
[2]; Homo sapiens, A549/ATCC (Non-small cell lung cancer), 10 µM, read-out: GI%
  inhibition at 10 µM: 70.8%
[2]; Homo sapiens
  GI50: 7.55 µM
[3]; Homo sapiens, ACHN (Renal cancer), 10 µM, read-out: GI%
  inhibition at 10 µM: 69.9%
[3]; Homo sapiens
  GI50: 7.93 µM
[4]; Homo sapiens, BT-549 (Breast cancer), 10 µM, read-out: GI%
  inhibition at 10 µM: > 100%
[4]; Homo sapiens
  GI50: 2.69 µM
[5]; Homo sapiens, CAKI-1 (Renal cancer), 10 µM, read-out: GI%
  inhibition at 10 µM: 97.1%
[5]; Homo sapiens
  GI50: 11.2 µM
[6]; Homo sapiens, CCRF-CEM (Leukemia), 10 µM, read-out: GI%
  inhibition at 10 µM: > 100%
[6]; Homo sapiens
  GI50: 6.27 µM
[7]; Homo sapiens, HCC-2998 (Colon cancer), 10 µM, read-out: GI%
  inhibition at 10 µM: > 100%
[7]; Homo sapiens
  GI50: 11.1 µM
[8]; Homo sapiens, HCT-15 (Colon cancer), 10 µM, read-out: GI%
  inhibition at 10 µM: 44.3%
[8]; Homo sapiens
  GI50: 73 µM
[9]; Homo sapiens, HL-60(TB) (Leukemia), 10 µM, read-out: GI%
  inhibition at 10 µM: 67.8%
[9]; Homo sapiens
  GI50: 3.9 µM
[10]; Homo sapiens, HOP-62 (Non-small cell lung cancer), 10 µM, read-out: GI%
  inhibition at 10 µM: > 100%
[10]; Homo sapiens
  GI50: 4.68 µM
[11]; Homo sapiens, HS 578 T (Breast cancer), 10 µM, read-out: GI%
  inhibition at 10 µM: > 100%
[11]; Homo sapiens
  GI50: 2.58 µM
[12]; Homo sapiens, HT-29, HT29 (Colon cancer), 10 µM, read-out: GI%
  inhibition at 10 µM: > 100%
[12]; Homo sapiens, HT-29
  GI50: 2.98 µM
[13]; Homo sapiens, LOX IMVI (Melanoma), 10 µM, read-out: GI%
  inhibition at 10 µM: > 100%
[13]; Homo sapiens
  GI50: 4.67 µM
[14]; Homo sapiens, MCF7 (Breast cancer), 10 µM, read-out: GI%
  inhibition at 10 µM: > 100%
[14]; Homo sapiens
  GI50: 0.66 µM
[15]; Homo sapiens, MDA-MB-231/ATCC (Breast cancer), 10 µM, read-out: GI%
  inhibition at 10 µM: > 100%
[15]; Homo sapiens
  GI50: 3.39 µM
[16]; Homo sapiens, MOLT-4 (Leukemia), 10 µM, read-out: GI%
  inhibition at 10 µM: 96%
[16]; Homo sapiens
  GI50: 3.58 µM
[17]; Homo sapiens, NCI-H23 (Non-small cell lung cancer), 10 µM, read-out: GI%
  inhibition at 10 µM: > 100%
[17]; Homo sapiens
  GI50: 4.72 µM
[18]; Homo sapiens, NCI-H322M (Non-small cell lung cancer), 10 µM, read-out: GI%
  inhibition at 10 µM: 96.1%
[18]; Homo sapiens
  GI50: 8.29 µM
[19]; Homo sapiens, OVCAR-5 (Ovarian cancer), 10 µM, read-out: GI%
  inhibition at 10 µM: 37.4%
[19]; Homo sapiens
  GI50: 15.6 µM
[20]; Homo sapiens, OVCAR-8 (Ovarian cancer), 10 µM, read-out: GI%
  inhibition at 10 µM: > 100%
[20]; Homo sapiens
  GI50: 3.87 µM
[21]; Homo sapiens, PC-3 (Prostate cancer), 10 µM, read-out: GI%
  inhibition at 10 µM: > 100%
[21]; Homo sapiens, PC-3, Prostate cancer, five-dose
  GI50: 5.73 µM
[22]; Homo sapiens, SF-268 (CNS cancer), 10 µM, read-out: GI%
  inhibition at 10 µM: > 100%
[22]; Homo sapiens
  GI50: 4.4 µM
[23]; Homo sapiens, SK-MEL-2 (Melanoma), 10 µM, read-out: GI%
  inhibition at 10 µM: > 100%
[23]; Homo sapiens
  GI50: 11 µM
[24]; Homo sapiens, SNB-19 (CNS cancer), 10 µM, read-out: GI%
  inhibition at 10 µM: > 100%
[24]; Homo sapiens
  GI50: 3.42 µM
[25]; Homo sapiens, SR (Leukemia), 10 µM, read-out: GI%
  inhibition at 10 µM: > 100%
[25]; Homo sapiens
  GI50: 3.76 µM
[26]; Homo sapiens, UACC-257 (Melanoma), 10 µM, read-out: GI%
  inhibition at 10 µM: > 100%
[26]; Homo sapiens
  GI50: 4.67 µM
